Values of other authors, collected in US10888524B2, “Immediate release tablet of dofetilide” (Enaltec Pharma Research Pvt. Ltd., priority 2018, dated 2021).

Key:
[1] = system: patients with atrial as well as ventricular arrhythmias
[2] = system: patients with severe left ventricular dysfunction; settings: unlike class I agents

CN(CCOc1ccc(NS(C)(=O)=O)cc1)CCc1ccc(NS(C)(=O)=O)cc1 [Dofetilide, N-[4-[2-[methyl[2-[4-[(methylsulfonyl)amino]phenoxy]ethyl]amino]ethyl]phenyl]-methane sulfonamide]
Efficacy in treating arrhythmias [1]: effective | Safety in patients with congestive heart failure [2]: safe
